Measurements taken from patent US12312347B2, “Azaindole derivative and use thereof as FGFR and C-Met inhibitor” (Wuxi Life Fountain Biotech Co., Ltd, priority 2018, dated 2025).
Counter-ions that a name gives are not always drawn.

How the values were obtained:
Format in all cases: biochemical
human c-Met = target: T1, human c-Met (Homo sapiens, UniProt P08581); experiment: 33P isotope-labeled kinase activity test, c-Met; conditions: ATP 10 μM
T1 construct: purchased Invitrogen PV3143
Method: (§1) The inhibitory activities of the tested compounds on human FGFR1, FGFR4, and c-Met were evaluated by the IC50 values measured using ^33P isotope-labeled kinase activity test (Reaction Biology Corp).
(§2) Buffer condition: 20 mM Hepes (pH 7.5), 10 mM MgCl2, 1 mM EGTA, 0.02% Brij35, 0.02 mg/mL BSA, 0.1 mM Na3VO4, 2 mM DTT, 1% DMSO.
(§3) Test procedure: The test compounds were dissolved in DMSO at room temperature and formulated to be 10 mM solutions for later use. The substrates were dissolved in freshly prepared buffer, and kinases to be tested were added and mixed well. The test compounds dissolved in DMSO were added to the above mixed reaction solutions by acoustic technique (Echo 550). The concentration of the compound in reaction solution was 1 μM, 0.25 μM, 0.156 μM, 3.91 nM, 0.977 nM, 0.244 nM, 0.061 nM, 0.0153 nM, 0.00381 nM or 10 μM, 2.50 μM, 0.62 μM, 0.156 μM, 39.1 nM, 9.8 nM, 2.4 nM, 0.61 nM, 0.15 nM, 0.038 nM. After incubation for 15 min, ^33P-ATP (activity 0.01 μCi/μL, corresponding concentrations are listed in Table 1) was added to start the reaction. Supplier item number, batch number, as well as the concentration information in the reaction solution of FGFR1, FGFR4, c-Met and substrates thereof are listed in Table 1. […] The kinase activity data are expressed by comparison between the kinase activity in the test compound group and the kinase activity in the blank group (containing DMSO only). IC50 values were obtained by curve fitting with Prism4 software (GraphPad).

human FGFR4 = target: T2, human FGFR4 (Homo sapiens, UniProt P22455); experiment: 33P isotope-labeled kinase activity test, FGFR4; conditions: ATP 100 μM
T2 construct: purchased Invitrogen P3054
Method: as §1, §2, §3

human FGFR1 = target: T3, human FGFR1 (Homo sapiens, UniProt P11362); experiment: 33P isotope-labeled kinase activity test, FGFR1; conditions: ATP 5 μM
T3 construct: purchased Invitrogen PV3146
Method: as §1, §2
as §3, with “The concentration of the compound in reaction solution was 1 μM, 0.25 μM, 0.156 μM, 3.91 nM, 0.977 nM, 0.244 nM, 0.061 nM, 0.0153 nM, 0.00381 nM or 10 μM, 2.50 μM, 0.62 μM, 0.156 μM, 39.1 nM, 9.8 nM, 2.4 nM, 0.61 nM, 0.15 nM, 0.038 nM.” left out

T3 sequence (P11362 22-822): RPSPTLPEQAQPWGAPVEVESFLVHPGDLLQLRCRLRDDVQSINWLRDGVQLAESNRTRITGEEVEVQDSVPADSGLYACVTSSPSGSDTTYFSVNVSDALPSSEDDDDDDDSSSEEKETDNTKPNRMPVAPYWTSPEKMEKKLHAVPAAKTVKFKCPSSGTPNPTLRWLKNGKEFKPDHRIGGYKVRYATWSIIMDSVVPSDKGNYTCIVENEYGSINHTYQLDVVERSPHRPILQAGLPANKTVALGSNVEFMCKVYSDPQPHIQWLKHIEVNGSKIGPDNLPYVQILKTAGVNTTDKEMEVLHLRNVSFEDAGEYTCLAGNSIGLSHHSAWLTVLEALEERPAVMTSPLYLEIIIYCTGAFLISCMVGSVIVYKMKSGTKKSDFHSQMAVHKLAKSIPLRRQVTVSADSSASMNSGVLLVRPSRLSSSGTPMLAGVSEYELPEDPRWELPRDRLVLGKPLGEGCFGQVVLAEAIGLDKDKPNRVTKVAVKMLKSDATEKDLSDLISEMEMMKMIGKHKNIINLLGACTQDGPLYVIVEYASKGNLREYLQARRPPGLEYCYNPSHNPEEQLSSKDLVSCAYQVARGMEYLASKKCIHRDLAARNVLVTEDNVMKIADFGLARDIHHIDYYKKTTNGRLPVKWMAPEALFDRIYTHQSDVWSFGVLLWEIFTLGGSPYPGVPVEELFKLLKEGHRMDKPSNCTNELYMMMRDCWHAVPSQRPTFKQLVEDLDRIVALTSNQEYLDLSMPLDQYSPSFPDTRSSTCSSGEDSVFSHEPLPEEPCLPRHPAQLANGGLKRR
T1 sequence (P08581 25-1390): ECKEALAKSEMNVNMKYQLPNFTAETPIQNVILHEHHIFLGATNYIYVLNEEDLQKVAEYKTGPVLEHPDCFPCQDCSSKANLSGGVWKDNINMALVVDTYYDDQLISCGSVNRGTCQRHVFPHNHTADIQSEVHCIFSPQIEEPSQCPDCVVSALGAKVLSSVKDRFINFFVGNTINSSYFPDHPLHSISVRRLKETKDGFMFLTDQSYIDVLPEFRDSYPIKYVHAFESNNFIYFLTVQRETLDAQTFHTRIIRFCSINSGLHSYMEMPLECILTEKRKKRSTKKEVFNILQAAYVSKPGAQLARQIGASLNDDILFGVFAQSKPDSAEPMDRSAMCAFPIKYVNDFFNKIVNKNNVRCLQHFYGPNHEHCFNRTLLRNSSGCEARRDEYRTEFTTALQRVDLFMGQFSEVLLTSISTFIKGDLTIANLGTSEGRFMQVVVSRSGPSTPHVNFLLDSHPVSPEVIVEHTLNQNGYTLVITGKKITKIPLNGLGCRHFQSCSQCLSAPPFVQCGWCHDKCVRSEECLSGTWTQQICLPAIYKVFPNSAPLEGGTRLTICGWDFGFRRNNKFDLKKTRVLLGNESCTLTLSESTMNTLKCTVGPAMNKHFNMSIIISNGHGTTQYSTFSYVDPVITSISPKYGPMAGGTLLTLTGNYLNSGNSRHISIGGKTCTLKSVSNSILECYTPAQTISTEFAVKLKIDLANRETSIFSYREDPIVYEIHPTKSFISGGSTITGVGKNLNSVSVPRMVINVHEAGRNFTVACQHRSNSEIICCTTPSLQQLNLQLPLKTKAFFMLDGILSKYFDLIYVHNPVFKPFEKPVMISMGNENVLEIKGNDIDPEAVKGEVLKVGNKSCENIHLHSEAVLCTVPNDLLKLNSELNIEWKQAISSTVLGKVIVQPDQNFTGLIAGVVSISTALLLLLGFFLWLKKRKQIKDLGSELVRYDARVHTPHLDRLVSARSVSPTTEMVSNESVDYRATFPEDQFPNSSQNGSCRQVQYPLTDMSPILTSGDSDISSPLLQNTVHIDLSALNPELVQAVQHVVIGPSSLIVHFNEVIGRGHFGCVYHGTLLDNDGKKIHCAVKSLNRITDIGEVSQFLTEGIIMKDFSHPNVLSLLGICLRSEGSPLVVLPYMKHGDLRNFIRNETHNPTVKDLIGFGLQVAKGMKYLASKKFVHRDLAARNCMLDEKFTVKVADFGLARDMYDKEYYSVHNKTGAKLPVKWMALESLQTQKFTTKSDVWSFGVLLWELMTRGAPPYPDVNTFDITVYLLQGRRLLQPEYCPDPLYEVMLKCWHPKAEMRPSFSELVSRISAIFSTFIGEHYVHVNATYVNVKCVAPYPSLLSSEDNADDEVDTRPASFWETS
T2 sequence (P22455 22-802): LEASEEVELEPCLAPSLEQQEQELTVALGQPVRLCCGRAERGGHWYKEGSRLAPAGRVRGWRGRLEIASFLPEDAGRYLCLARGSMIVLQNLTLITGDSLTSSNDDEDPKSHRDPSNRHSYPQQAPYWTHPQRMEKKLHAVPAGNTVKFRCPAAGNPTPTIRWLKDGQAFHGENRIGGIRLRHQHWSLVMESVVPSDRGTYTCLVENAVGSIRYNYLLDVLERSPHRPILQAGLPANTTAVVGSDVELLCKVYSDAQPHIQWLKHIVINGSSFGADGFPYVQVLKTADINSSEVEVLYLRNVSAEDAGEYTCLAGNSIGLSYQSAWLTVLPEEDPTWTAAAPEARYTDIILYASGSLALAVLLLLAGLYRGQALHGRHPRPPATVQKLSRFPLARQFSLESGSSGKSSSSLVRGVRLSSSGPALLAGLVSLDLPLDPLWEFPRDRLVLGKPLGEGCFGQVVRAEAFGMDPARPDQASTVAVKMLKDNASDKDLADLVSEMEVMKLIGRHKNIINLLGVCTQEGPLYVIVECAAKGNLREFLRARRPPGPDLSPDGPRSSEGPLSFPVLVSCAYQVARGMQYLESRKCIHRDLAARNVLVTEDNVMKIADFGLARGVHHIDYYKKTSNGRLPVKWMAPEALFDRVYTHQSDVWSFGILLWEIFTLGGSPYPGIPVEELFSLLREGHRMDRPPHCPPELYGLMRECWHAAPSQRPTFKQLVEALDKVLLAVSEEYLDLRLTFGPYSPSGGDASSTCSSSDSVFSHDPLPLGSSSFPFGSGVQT

| Compound | IC50 (human c-Met) [nM] | IC50 (human FGFR4) [nM] | IC50 (human FGFR1) [nM] |
| --- | --- | --- | --- |
| CC(c1c(Cl)ccc(F)c1Cl)c1c[nH]c2ncc(-c3cnn(CCO)c3)cc12 (single isomer, unassigned) [Comparative Compound 1a, reference compound] | 758 | > 10000 | – |
| CC(c1c(Cl)ccc(F)c1Cl)c1c[nH]c2ncc(-c3cnn(CCO)c3)cc12 (stereo not drawn) [Comparative Compound 1b, reference compound] | 11.1 | 5090 | – |
| COc1ccc(Cl)c(Cc2c[nH]c3ncc(-c4cnn(C5CCNCC5)c4)nc23)c1Cl [Embodiment 7] | 41.5 | > 10000 | 85.9 |
| COc1cc(OC)c(F)c(Cc2c[nH]c3ncc(-c4cnn(C5CCNCC5)c4)cc23)c1F [Embodiment 9] | 11.3 | 18.3 | 0.8 |
| COc1cc(OC)c(F)c(Cc2c[nH]c3ncc(-c4cnn(C5CCN(CCO)CC5)c4)cc23)c1F [Embodiment 16] | 10.5 | 16.1 | 0.73 |
| COc1cc(OC)c(F)c(Cc2c[nH]c3ncc(-c4cn(C5CCNCC5)nc4C)cc23)c1F [Embodiment 32] | 6.2 | 13.5 | – |
| CCN1CCC(n2cc(-c3cnc4[nH]cc(Cc5c(F)ccc(OC)c5F)c4c3)cn2)CC1 [Embodiment 38] | 9.1 | 599 | – |
| CCN1CCC(n2cc(-c3cnc4[nH]cc(Cc5c(F)ccc(OC)c5F)c4c3)c(C#N)n2)CC1 [Embodiment 45] | 9.1 | 351 | – |
| CCN1CCC(n2ccc(-c3cnc4[nH]cc(Cc5c(F)c(OC)nc(OC)c5F)c4c3)n2)CC1 [Embodiment 75] | 3.26 | 10.6 | – |
| COc1cc(OC)c(F)c(Cc2c[nH]c3ncc(-c4ccnc(N5CCN(C)CC5)c4)cc23)c1F [Embodiment 78] | 141 | 9.8 | – |
| COc1cc(OC)c(F)c(Cc2n[nH]c3ncc(-c4cnn(C5CCNCC5)c4)cc23)c1F [Hydrochloride of embodiment 2] | 7.8 | 137 | – |
| CCN1CCC(n2cc(-c3cnc4[nH]nc(Cc5c(F)c(OC)cc(OC)c5F)c4c3)cn2)CC1 [Hydrochloride of embodiment 3] | 76.1 | 148 | – |
| CCN1CCC(n2cc(-c3cnc4[nH]nc(Cc5c(F)ccc(OC)c5F)c4c3)cn2)CC1 [Hydrochloride of embodiment 4] | 177 | 799 | – |
| COc1cc(OC)c(F)c(Cc2c[nH]c3ncc(-c4cnn(CCN(C)C)c4)cc23)c1F [Hydrochloride of embodiment 28] | 25.9 | 20.2 | 0.55 |
| COc1cc(OC)c(F)c(Cc2c[nH]c3ncc(-c4c(C)nn(CCO)c4C)cc23)c1F [Hydrochloride of embodiment 34] | 86.7 | 126 | 8.9 |
| COc1ccc(F)c(Cc2c[nH]c3ncc(-c4cn(C5CCNCC5)nc4C)cc23)c1F [Hydrochloride of embodiment 36] | 27.3 | 684 | – |
| CCN1CCC(n2cc(-c3cnc4[nH]cc(Cc5c(F)c(OC)cc(OC)c5F)c4c3)c(C)n2)CC1 [Hydrochloride of embodiment 37] | 33 | 52.4 | – |
| CCN1CCC(n2ncc(-c3cnc4[nH]cc(Cc5c(F)c(OC)cc(OC)c5F)c4c3)c2Cl)CC1 [Hydrochloride of embodiment 40] | 14.6 | 21.5 | 0.4 |
| CCN1CCC(n2cc(-c3cnc4[nH]cc(Cc5c(F)c(OC)cc(OC)c5F)c4c3)c(C#N)n2)CC1 [Hydrochloride of embodiment 42] | 7.1 | 10.2 | 1.4 |
| COc1cc(OC)c(F)c(Cc2c[nH]c3ncc(-c4cn(C5CCN(C)CC5)nc4C#N)cc23)c1F [Hydrochloride of embodiment 43] | 57.1 | 61.7 | – |
| COc1cc(OC)c(F)c(Cc2c[nH]c3ncc(-c4cncc(C5=CCNCC5)n4)cc23)c1F [Hydrochloride of embodiment 63] | – | – | 9.41 |
| CCN1CCC(c2cncc(-c3cnc4[nH]cc(Cc5c(F)c(OC)cc(OC)c5F)c4c3)n2)CC1 [Hydrochloride of embodiment 65] | 135 | 2.7 | – |
| COc1cc(OC)c(F)c(Cc2c[nH]c3ncc(-c4cnn(CCNC(C)C)c4)cc23)c1F [Hydrochloride of embodiment 68] | 53.5 | 10 | – |
| COc1cc(OC)c(F)c(Cc2c[nH]c3ncc(-c4cnn(CCCNC(C)C)c4)cc23)c1F [Hydrochloride of embodiment 72] | 70.8 | 53.1 | – |
| CCN1CCC(n2cc(-c3cnc4[nH]c(C)c(Cc5c(F)c(OC)cc(OC)c5F)c4c3)cn2)CC1 [Hydrochloride of embodiment 74] | 4.2 | 56.4 | – |
| COc1cc(OC)c(F)c(Cc2n[nH]c3ncc(-c4cnn(CCO)c4)cc23)c1F [Trifluoroacetate salt of embodiment 1] | 1290 | 39.7 | – |
| COc1cc(OC)c(F)c(Cc2c[nH]c3ncc(-c4cnn(C5CCNCC5)c4)nc23)c1F [Trifluoroacetate salt of embodiment 5] | 47.2 | 20.3 | – |

Next, values leading:

| IC50 (human c-Met) [nM] | IC50 (human FGFR4) [nM] | IC50 (human FGFR1) [nM] | Compound |
| --- | --- | --- | --- |
| 8.7 | 1710 | – | COc1ccc(Cl)c(Cc2c[nH]c3ncc(-c4cnn(C5CCNCC5)c4)cc23)c1Cl [Trifluoroacetate salt of embodiment 10] |
| – | 550 | 17.1 | COc1cc(Cc2c[nH]c3ncc(-c4cnn(C5CCNCC5)c4)cc23)cc(OC)c1 [Trifluoroacetate salt of embodiment 11] |
| 3.17 | 36 | – | CCN1CCC(n2cc(-c3cnc4[nH]cc(Cc5c(F)c(OC)cc(OC)c5F)c4c3)cn2)CC1 [Trifluoroacetate salt of embodiment 12] |
| 11.6 | 7.5 | – | COc1cc(OC)c(F)c(Cc2c[nH]c3ncc(-c4cnn(C5CCN(C(C)=O)CC5)c4)cc23)c1F [Trifluoroacetate salt of embodiment 17] |
| 16.1 | 29.7 | – | COc1cc(OC)c(F)c(Cc2c[nH]c3ncc(-c4cnn(C5CCN(S(C)(=O)=O)CC5)c4)cc23)c1F [Trifluoroacetate salt of embodiment 18] |
| 12 | 158 | – | CNC(=O)c1cc(Cc2c[nH]c3ncc(-c4cnn(C5CCNCC5)c4)cc23)c(Cl)c(OC)c1 [Trifluoroacetate salt of embodiment 20] |
| 23.8 | 29.2 | – | COc1cc(OC)c(F)c(Cc2c[nH]c3ncc(-c4cnn(C5CCOCC5)c4)cc23)c1F [Trifluoroacetate salt of embodiment 22] |
| 76.5 | 252 | – | COc1cc(OC)c(F)c(Cc2c[nH]c3ncc(-c4cnn(C5CNC5)c4)cc23)c1F [Trifluoroacetate salt of embodiment 24] |
| 13.8 | 35.3 | – | COc1cc(OC)c(F)c(Cc2c[nH]c3ncc(-c4cnn(C5CN(C(C)=O)C5)c4)cc23)c1F [Trifluoroacetate salt of embodiment 26] |
| 6.7 | 13.1 | – | COc1cc(OC)c(F)c(Cc2c[nH]c3ncc(-c4cnn(C5CN(CCO)C5)c4)cc23)c1F [Trifluoroacetate salt of embodiment 27] |
| 14 | 23.5 | – | COc1cc(OC)c(F)c(Cc2c[nH]c3ncc(-c4cn(C5CCN(C)CC5)nc4C)cc23)c1F [Trifluoroacetate salt of embodiment 35] |
| 191 | 32.3 | – | COc1cc(OC)c(F)c(Cc2c[nH]c3ncc(-c4cn(C)nc4C#N)cc23)c1F [Trifluoroacetate salt of embodiment 44] |
| 8.8 | 529 | – | COc1cc(OC)c(Cl)c(Cc2c[nH]c3ncc(-c4cnn(C5CCNCC5)c4)cc23)c1Cl [Trifluoroacetate salt of embodiment 49] |
| 132 | 8.6 | – | COc1cc(OC)c(F)c(Cc2c[nH]c3ncc(-c4ccc(N5CCN(C)CC5)nc4)cc23)c1F [Trifluoroacetate salt of embodiment 62] |
| – | 3.87 | – | COc1cc(OC)c(F)c(Cc2c[nH]c3ncc(-c4cnn(CCS(C)(=O)=O)c4)cc23)c1F [Trifluoroacetate salt of embodiment 76] |
| – | 3.41 | – | COc1nc(OC)c(F)c(Cc2c[nH]c3ncc(-c4cnn(CCS(C)(=O)=O)c4)cc23)c1F [Trifluoroacetate salt of embodiment 77] |
